The record followed here is patent US20120003191A1, “VALPROIC ACID, DERIVATIVES, ANALOGUES, AND COMPOSITIONS INCLUDING SAME AND METHODS FOR THEIR THERAPEUTIC USE” (priority 2009, published 2012).

The subject of the experiment is Akt. In words: Western blotting of activated and total Akt in quadriceps of mdx/utrn−/− mice. The experiment is classed as in vivo, mouse. To be noted: 240 mg/kg i.p. twice daily for 5 weeks. As to the method:
mdx/utrn−/− mice lack both dystrophin and utrophin, and were bred and genotyped as reported in Burkin, et al., Enhanced expression of the alpha 7 beta 1 integrin reduces muscular dystrophy and restores viability in dystrophic mice, J. Cell Biol. 152:1207-18 (2001). 240 mg/kg body weight of VPA was injected intraperitoneally twice daily into mdx/utrn^−/− mice (n=9) starting at 3 weeks of age, for a period of 5 weeks. Control mice were injected with saline (n=9). Body-weights were determined daily.
Cell lysates of differentiating cells on 60 mm dishes were prepared as follows: the cells were washed twice with PBS and 200 μl Triton X-100 lysis buffer (2% Triton X-100, 20 mM Tris-Cl, pH 7.4, 150 mM NaCl, 1 mM EDTA, 1 mM EGTA, 2.5 mM NaPPi, 1 mM β-glycerophosphate, 1 mM sodium vanadate, 1:200 Protease Inhibitor Cocktail (EMD Chemicals, San Diego, Calif.) and 1 mM PMSF) were added. The cells were scraped and transferred into Eppendorf tubes, the cell suspensions were triturated and centrifuged at 8000×g at 4° C. for 10 minutes, and the supernatants were collected. […] Protein concentrations were determined by the Bradford assay. […] The supernatants were collected and protein concentrations were determined spectrophotometrically at OD260 and OD280. […] ImageQuant analysis software (Molecular Dynamics, Sunnyvale, Calif.) was used to quantify band intensity.
In general terms: A western blot detects proteins with antibodies after separation by electrophoresis.

For the compound `CCCC(CCC)C(=O)O` [VPA, valproic acid], the “levels of activated Akt in muscle” value is listed as “Significantly higher levels”.
